The record followed here is US20250172566A1, “SACCHARIDE SENSING SYSTEMS” (CARBOMETRICS LIMITED, priority 2022, published 2025).

This assay in a line: Fluorescent hydrogel phase glucose responsive assay (10 mM PBS, pH 7.4, 310 K). The following applies: 20 mM D-glucose, GBM2 10 uM, FIM 1 uM. As to the method:
The fluorescence spectrum of the corresponding hydrogel, already swollen in 200 μL of 10 mM PBS, in a well plate was recorded by exciting at the designated excitation frequency and monitoring at the typical emission maximum (Emmax). The PBS top solution was removed either by micropipette or by decanting onto an absorbent material. A 200 μL solution of D-glucose (in 10 mM PBS) at the required concentration was added to each hydrogel in the well plate and the system allowed to reach equilibrium. The emission spectra for each well were collected after this and compared to the original baseline emission, monitoring at the typical emission maximum (Emmax), and the percentage increase or decrease recorded. The change in emission was recorded for each hydrogel in the well plate (up to 96 individual hydrogel sensors) or an average of all wells was used. The hydrogel bound assays were then investigated for reproducibility by cycling with solutions of PBS or D-glucose. This was achieved by removal of the previous top solution (e.g. D-glucose) by micropipette or decanting onto an absorbent material and replacing with another solution (e.g. 10 mM PBS). […] Emission spectra acquired using a Clariostar plus plate reader.
(§1) Hydroxyethylmethacrylate (2.85 g), TEGDMA (0.15 g), VAZO-44 (0.12 mg), ethylene glycol (1.06 g) and water (1.33 g) were added to a glass vial and vortexed/sonicated until a homogeneous solution. Concentrated aliquots (<50 μL) of the appropriate GBM and FIM from pre-made stock solutions were added to give the required final concentrations of GBM and FIM (i.e. 50 μL of GBM stock solution at 1 mM gives a final GBM concentration of 10 μM in the pre-gel solution). A 50 μL aliquot of this GBM and FIM containing pre-gel solution was pipetted into each well of a transparent flat-bottomed polystyrene 96 well plate. 100 μL of n-butanol was layered on top of the pre-gel solution in each well plate and each well plate covered with a loose transparent well plate lid. The well plate was then placed in a nitrogen flushed desiccator, which was then placed into a pre-heated oven at 45° C. for 4 hours. The well plates were then removed from the oven, allowed to cool to RT and the top solution removed by decanting onto an absorbent material. The hydrogels were then washed and swelled by submerging in one litre of pure water or 10 mM PBS for 24 hours. Each well within the well plate containing hydrogel bound assay was then washed with D-glucose (50 mM) and then 10 mM PBS multiple times until the observed fluorescence emission stabilised to give a baseline emission value in 10 mM PBS. These hydrogels were then used for determining assay performance and reversibility studies.
as §1, with “(1.95” for “(2.85”, “PEGDA (0.57” for “TEGDMA (0.15”, “(0.04” for “(0.12”, “200 mM methyl-p-D-glucopyranoside (aqueous, 1.39” for “water (1.33”, “FIM.” for “FIM (i.e. 50 μL of GBM stock solution at 1 mM gives a final GBM concentration of 10 μM in the pre-gel solution).”, “hours.” for “hours. Each well within the well plate containing hydrogel bound assay was then washed with D-glucose (50 mM) and then 10 mM PBS multiple times until the observed fluorescence emission stabilised to give a baseline emission value in 10 mM PBS. These hydrogels were then used for determining assay performance and reversibility studies.”

As for `C=CC(=O)NCCOCCOCCOCCOCCOCCOCCC(=O)NCCCC[C@@H](C(=O)Nc1ccc(CCO[C@@H]2O[C@H](CO)[C@@H](O)[C@H](O)[C@H]2O)cc1)n1cc(CNC(=O)c2ccc(C(=O)O)c(-c3c4cc(C)c(=NCC)cc-4oc4cc(NCC)c(C)cc34)c2)nn1` [FIM16], the “Change in Emmax for FIM at a particular D-glucose concentration” value by setting is: (Ex 515/Emmax 550 nm, hydrogel A (HEMA/TEGDMA)) 45%; (Ex 515/Emmax 550 nm, hydrogel C (polyacrylamide/bis-acrylamide)) 50%.

On to `C=CC(=O)NCCOCCOCCOCCOCCOCCOCCC(=O)NCCCC[C@@H](C(=O)Nc1ccc2c(c1)C(=O)OC21c2ccc(O)cc2Oc2cc(O)ccc21)n1cc(-c2ccc(CCO[C@@H]3O[C@H](CO)[C@@H](O)[C@H](O)[C@H]3O)cc2)nn1` [FIM24], for which the “Change in Emmax for FIM at a particular D-glucose concentration” value (Ex 470/Emmax 530 nm, hydrogel A (HEMA/TEGDMA)) came out at 8%.
